Assay results published in ChEMBL document CHEMBL1201862, “PubChem BioAssay data set” (2004).
Active and inactive are the calls of the source. Unless noted, the calls are words filed in the database; no cut-off is given here.

How the values were obtained:
[1] = T. b. rhodesiense proliferation inhibition, dose response, STIB900 strain, plate reader, cherry pick (AID 651893); type: functional, cell-based; conditions: Trypanosoma brucei
[2] = L-6 rat myoblast cytotoxicity, dose response, counter-screen for T. cruzi inhibitor project, cell-based, plate reader, dry powder (AID 651895); type: functional
[3] = L. donovani amastigote growth inhibition, dose response, axenic amastigotes, plate reader, cherry pick (AID 651891); type: functional, cell-based; conditions: Leishmania donovani
[4] = T. cruzi intracellular amastigote growth inhibition, dose response, imaging, CA-I/72 strain, bovine embryo skeletal muscle, dry powder (AID 651885); type: functional, cell-based
[5] = T. b. rhodesiense proliferation inhibition, dose response, STIB900 strain, plate reader, dry powder (AID 651894); type: functional, cell-based
[6] = cytotoxicity in L-6 rat myocytes, dose response, cytotoxicity control, cell-based, plate reader, cherry-pick (AID 651896); type: functional
[7] = P. falciparum blood-stage growth inhibition, dose response, NF54 strain, plate reader, dry powder (AID 651889); type: functional, cell-based
[8] = T. cruzi amastigote growth inhibition, dose response, Tulahuen strain, L-6 host cells, dry powder (AID 651890); type: functional, cell-based
[9] = growth inhibition of intracellular T. cruzi, dose response, cell-based, plate reader, dry powder samples (AID 651845); type: functional
[10] = intracellular Trypanosoma cruzi inhibitors in host cells – cell-based, plate reader, cherry-pick samples, set 3, dose response (AID 651818); type: functional;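 further: compounds incubated with infected cells for about four days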
[11] = L. donovani amastigote growth inhibition, dose response, axenic amastigotes, plate reader, dry powder (AID 651892); type: functional, cell-based
[12] = T. cruzi growth inhibition in host cells, dose response, cell-based, plate reader, dry powder, set 2 (AID 652275); type: functional
[13] = target: G-protein coupled receptor 183 (Homo sapiens, UniProt P32249); assay: SAR confirmation of small molecule antagonists of the EBI2 receptor via a luminescent beta-arrestin assa.; type: functional
G-protein coupled receptor 183, sequence (P32249 whole entry): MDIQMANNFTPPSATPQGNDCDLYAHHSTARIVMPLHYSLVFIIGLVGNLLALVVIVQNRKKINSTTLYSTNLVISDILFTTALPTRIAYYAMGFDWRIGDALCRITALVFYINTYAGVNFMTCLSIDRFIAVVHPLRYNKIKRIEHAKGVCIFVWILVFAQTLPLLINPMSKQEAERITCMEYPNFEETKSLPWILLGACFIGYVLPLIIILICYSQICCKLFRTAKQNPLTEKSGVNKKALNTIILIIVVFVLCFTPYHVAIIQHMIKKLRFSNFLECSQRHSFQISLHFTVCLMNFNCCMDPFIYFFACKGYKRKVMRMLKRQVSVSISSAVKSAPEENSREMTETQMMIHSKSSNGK

Phospholipase D1 = target: T1, Phospholipase D1 (Homo sapiens, UniProt Q13393); assay: PLD1 Cellular Concentration Response Study.; type: functional
T1 sequence (Q13393 whole entry): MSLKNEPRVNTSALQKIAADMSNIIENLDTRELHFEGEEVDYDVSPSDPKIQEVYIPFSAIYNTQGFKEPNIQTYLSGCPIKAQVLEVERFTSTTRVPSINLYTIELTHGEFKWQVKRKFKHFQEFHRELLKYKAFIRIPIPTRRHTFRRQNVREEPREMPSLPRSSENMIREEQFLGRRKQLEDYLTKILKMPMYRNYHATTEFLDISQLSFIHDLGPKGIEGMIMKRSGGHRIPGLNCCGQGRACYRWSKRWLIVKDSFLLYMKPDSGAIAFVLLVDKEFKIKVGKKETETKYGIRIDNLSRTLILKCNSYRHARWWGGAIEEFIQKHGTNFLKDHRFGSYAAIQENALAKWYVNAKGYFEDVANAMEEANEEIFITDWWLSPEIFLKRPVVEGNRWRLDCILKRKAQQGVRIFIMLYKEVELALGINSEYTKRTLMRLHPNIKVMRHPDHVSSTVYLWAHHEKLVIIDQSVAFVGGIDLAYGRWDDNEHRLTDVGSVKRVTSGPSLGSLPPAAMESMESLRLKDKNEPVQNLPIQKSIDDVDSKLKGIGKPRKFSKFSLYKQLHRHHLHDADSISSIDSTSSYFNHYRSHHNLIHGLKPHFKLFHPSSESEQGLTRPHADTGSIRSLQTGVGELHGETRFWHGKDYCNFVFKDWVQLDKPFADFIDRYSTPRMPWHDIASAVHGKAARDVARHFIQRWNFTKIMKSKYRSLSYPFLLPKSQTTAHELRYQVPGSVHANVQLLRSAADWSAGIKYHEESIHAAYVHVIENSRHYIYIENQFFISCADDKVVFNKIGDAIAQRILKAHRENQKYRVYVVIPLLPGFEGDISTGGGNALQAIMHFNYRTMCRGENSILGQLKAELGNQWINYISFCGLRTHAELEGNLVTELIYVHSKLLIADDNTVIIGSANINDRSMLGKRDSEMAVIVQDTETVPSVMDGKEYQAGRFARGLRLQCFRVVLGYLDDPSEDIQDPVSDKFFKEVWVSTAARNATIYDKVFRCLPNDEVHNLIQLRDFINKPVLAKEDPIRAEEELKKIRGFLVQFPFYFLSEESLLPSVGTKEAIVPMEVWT

Phospholipase D2 = Phospholipase D2 (Homo sapiens, UniProt O14939); assay: PLD2 Cellular Concentration Response Study.; type: functional
Phospholipase D2, sequence (O14939 whole entry): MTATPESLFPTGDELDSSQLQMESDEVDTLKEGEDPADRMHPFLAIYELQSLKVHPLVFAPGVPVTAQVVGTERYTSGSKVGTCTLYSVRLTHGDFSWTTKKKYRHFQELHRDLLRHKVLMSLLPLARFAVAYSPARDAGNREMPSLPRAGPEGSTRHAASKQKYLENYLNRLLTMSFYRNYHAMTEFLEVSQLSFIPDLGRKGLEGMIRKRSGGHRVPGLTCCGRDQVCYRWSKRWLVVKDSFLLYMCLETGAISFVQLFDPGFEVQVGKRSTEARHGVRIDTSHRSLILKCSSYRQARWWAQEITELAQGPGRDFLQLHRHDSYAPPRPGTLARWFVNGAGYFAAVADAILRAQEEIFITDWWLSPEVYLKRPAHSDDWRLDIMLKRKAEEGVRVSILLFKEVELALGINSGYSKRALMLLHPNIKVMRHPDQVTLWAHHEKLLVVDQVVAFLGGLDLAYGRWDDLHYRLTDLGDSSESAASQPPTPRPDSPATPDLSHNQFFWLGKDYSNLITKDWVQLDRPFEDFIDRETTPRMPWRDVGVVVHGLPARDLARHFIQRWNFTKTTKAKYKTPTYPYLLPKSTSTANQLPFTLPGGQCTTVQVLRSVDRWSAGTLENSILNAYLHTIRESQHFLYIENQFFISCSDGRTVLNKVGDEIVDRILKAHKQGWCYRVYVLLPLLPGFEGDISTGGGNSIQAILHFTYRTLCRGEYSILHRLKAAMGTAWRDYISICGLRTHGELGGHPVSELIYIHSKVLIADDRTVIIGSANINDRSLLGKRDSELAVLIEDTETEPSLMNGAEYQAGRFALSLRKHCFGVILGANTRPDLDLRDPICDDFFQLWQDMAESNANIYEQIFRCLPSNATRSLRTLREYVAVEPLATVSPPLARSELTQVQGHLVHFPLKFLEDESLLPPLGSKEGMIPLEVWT

[14] = Glucagon-like peptide 1 release potency, NCI-H716 cell line, dose-response, half-maximal inhibitory concentration (AID 1117344); type: functional, cell-based
[15] = half-maximal inhibitory concentration for glucagon-like peptide-1 release, STC-1 cell line, dose-response (AID 1117345); type: functional, cell-based
[16] = Dose-response inhibition of insulin secretion in a rat insulinoma line at 5 mM glucose (AID 1117331); type: functional, cell-based; conditions: INS-1E

## C[C@H](CO)N1C[C@H](C)[C@H](CN(C)Cc2ccc(Oc3ccccc3)cc2)Oc2c(NC(=O)c3ccncc3)cccc2C1=O
[1]
  IC50: 18.5 µM (inactive)
[2]
  IC50: 54.7 µM (inactive)
[3]
  IC50: > 100 µM (inactive)
[4]
  IC50: 0.0098 µM (active)
[5]
  IC50: 22.2 µM (inactive)
[6]
  IC50: 52.2 µM (active)
[7]
  IC50: 2.32 µM (inactive)
[8]
  IC50: 0.0755 µM (active)
[9]
  AC50: 0.0158 µM (active)
[10]
  AC50: 0.075 µM (active)
[11]
  IC50: > 100 µM (inactive)
[12]
  AC50: 0.00127 µM (active)

## O=C(/C=C/c1ccc(Cl)c(Cl)c1)N1CCN(C(=O)c2ccc(Cl)cc2)CC1
[13]
  IC50: 0.00117 µM (active)

## O=C(NCCN1CCC2(CC1)C(=O)NCN2Cc1cccnc1)c1ccc(Cl)c(Cl)c1
Phospholipase D1
  IC50: 20 µM (active)
Phospholipase D2
  IC50: 1.24 µM (active)

## NC(=O)C1(N2CCCCC2)CCN(CCCN2c3ccccc3CCc3ccc(Cl)cc32)CC1 [CLOCAPRAMINE]
[14]
  IC50: 18.3 µM (inactive)
[15]
  IC50: > 40 µM (inactive)
[16]
  IC50: 10.1 µM (inactive)
